Test results taken from patent US11464786B2, “CXCR7 inhibitors for the treatment of cancer” (CHEMOCENTRYX, INC., priority 2018, dated 2022).

Columns and labels:
Frs2β (+/+) CAFs = assay: Migration (mobilization) of CAFs in co-culture; format: cell-based, mouse; conditions: single inhibitor alone, 100 μg/ml; data not shown
Method: FIG. 4A-I CXCL12 produced from precancerous Frs2β (+/+) mammary cells induce tumor spheres and migration of CAFs. (A) Schematic of co-culture of Frs2β (+/+) tumor cells to form spheres in the lower chamber with Frs2β (+/+) precancerous mammary epithelial cells in the upper chamber. (B) Representative images of tumor sphere formation in the presence of Frs2β (+/+) mammary epithelial cells treated with control IgG (400 nM) or IGF1 neutralizing antibody (Nab) (400 nM). N.T., not treated (without co-culture with mammary epithelial cells). Scale bar: 100 ∝μ. (C) Quantification of tumor sphere-forming efficiency. Results are shown as means±SEM. n=4. ***p<0.001, **p<0.01. (D) Schematic of co-culture of Frs2β (+/+) or Frs2β (−/−) mammary cells in the lower chamber with Frs2β (+/+) or Frs2β (−/−) CAFs in the upper chamber. (E) Expression levels of Cxcl12 was compared between Frs2β (+/+) or Frs2β (−/−) mammary cells on the […] by qPCR. Results were shown as mean±SEM. n=6. * * *p<0.001. (F) Representative images of migrated Frs2β (+/+) CAFs co-cultured with Frs2β (+/+) or Frs2β (−/−) mammary cells in the […] for 24 hours. (G) Quantification of migrated Frs2β (+/+) CAFs. Results were shown as mean±SEM. n=4. **p<0.01. […] (I) Quantification of the migrated CAFs co-cultured with Frs2β (+/+) cancer cells for 24 hr. […]

[1] = tested on: Frs2β (+/+) precancerous mammary epithelial cells; assay: qPCR of NFkB target gene expression in cultured precancerous mammary epithelial cells; format: cell-based, mouse; conditions: in vitro, dose-dependent
From the text: (§1) FIG. 5A-K FRS2β-dependent increase in activation of AKT-NFκB increases the production of IGF1 and CXCL12, promoting tumorigenesis. (A) Schematic of DHMEQ treatment of cultured Frs2β (+/+) precancerous mammary epithelial cells in vitro. (B) Expression levels of Igf1, Cxcl12, and IκBα in Frs2β (+/+) precancerous mammary epithelial cells treated with the indicated concentration of DHMEQ were compared by qPCR. Results are shown as means±SEM. n=4. **p<0.01. (C) Immunoblotting analysis of the indicated proteins in the lysate of Frs2β (+/+) or Frs2β (−/−) precancerous mammary tissues. Actin was used as a loading control. (D) Immunoblotting analysis of cytoplasmic and nuclear expression levels of the indicated proteins (control as a nuclear protein) in the lysate of Frs2β (+/+) or Frs2β (−/−) mammary tissues. PARP1 was used as a representative protein in nucleus. Actin was used as a loading control. (E) Immunoblotting analysis of the indicated proteins in the lysate of Frs2β (+/+) or Frs2β (−/−) mammary tissues. Actin was used as a loading control. (F) Schematic of DHMEQ treatment of Frs2β (+/+) mice in vivo. The mice were intraperitoneally injected with 10 μg/g DHMEQ once a day for 3 weeks. (G) Immunohistochemical staining for Frs2β (+/+) mammary tissues with or without 3-week treatment with 10 μg/g DHMEQ, or Frs2β (−/−) mammary tissues, using antibodies against RelA. Scale bar: 50 ∝μ. (H) Expression levels of Igf1 and Cxcl12 in Frs2β (+/+) mammary tissues, with or without 3-week treatment with 10 μg/g DHMEQ. N.T., not treated. Results are shown as means±SEM. n=4. ***p<0.001 and **p<0.01 (I) Treatment of mice with a CXCR7 inhibitor and/or an IGF1 antibody reduces tumor volume. Frs2β (+/+) tumor sphere cells were inoculated into mammary fat pads of 8-week-old virgin female MMTV-neu (+)/Frs2β (+/+) mice. After 7 days, the mice were intraperitoneally injected with 0.1 μg/g IGF1 antibody (R&D Biosystems) once per week and/or 1 μg/g of AMD3100 (Sigma) one a day and 1.5 μg/g of Compound 1 once a day. […] Tumor volumes (J) and weights (K) were measured in mice treated as in (I). […]

Frs2β (+/+) mice = assay: DHMEQ treatment in vivo: RelA localization and cytokine transcripts in precancerous mammary tissues; design: species or system mouse; conditions: 10 μg/g intraperitoneally once a day for 3 weeks
From the text: as §1

Row | SMILES | mobilization of CAFs (Frs2β (+/+) CAFs) | expression of Cxcl12 [1] | expression of Igf1 [1] | expression of IkBa [1] | expression of Cxcl12 transcripts in precancerous mammary tissues (Frs2β (+/+) mice) | expression of Igf1 transcripts in precancerous mammary tissues (Frs2β (+/+) mice) | number of Frs2β (+/+) precancerous luminal cells harboring RelA in the nucleus (Frs2β (+/+) mice; immunohistochemistry)
1 | c1cc(CN2CCCNCCNCCCNCC2)ccc1CN1CCCNCCNCCCNCC1 [AMD3100] | did not observe significant effects |  |  |  |  |  | 
2 | CC(C)c1cc(N2CCCN(Cc3csc(-c4ccccc4)n3)CC2)c2ncccc2c1 [Compound 1] | did not observe significant effects |  |  |  |  |  | 
3 | O=C(NC1=CC(=O)[C@H]2O[C@H]2[C@H]1O)c1ccccc1O [DHMEQ] |  | inhibited | inhibited | inhibited | inhibited | inhibited | dramatically decreased
